# In patent US20090030024A1, “THIAZOLES AS FUNGICIDES” (priority 2005, published 2009):
# Test: logP determination by retention times (calibration with alkan-2-ones)
# Conditions: logP, values marked *: HPLC on reversed-phase C 18, 40° C., mobile phase 0.1% aqueous formic acid and acetonitrile, linear gradient 10% to 95% acetonitrile
row,SMILES,chromatographic logP
1,"Cc1nc(C(C)C)sc1-c1nc(Nc2ccccc2)ncc1Cl [Example 903, 5-chloro-4-(2-isopropyl-4-methyl-1,3-thiazol-5-yl)-N-phenylpyrimidine-2-amine]",4.27
2,"Cc1nc(C(C)C)sc1-c1nc(Nc2ccccc2)ncc1Br [Example 904, 5-bromo-4-(2-isopropyl-4-methyl-1,3-thiazol-5-yl)-N-phenylpyrimidine-2-amine]",4.32
3,"CCc1nc(C)c(-c2nc(Nc3cc(OC)c(OC)c(OC)c3)ncc2Br)s1 [Example 905, 5-bromo-4-(2-ethyl-4-methyl-1,3-thiazol-5-yl)-N-(3,4,5-trimethoxyphenyl)pyrimidine-2-amine]",3.29
4,"COc1cc(Nc2ncc(Br)c(-c3sc(C)nc3C)n2)cc(OC)c1OC [Example 906, 5-bromo-4-(2,4-dimethyl-1,3-thiazol-5-yl)-N-(3,4,5-trimethoxyphenyl)pyrimidine-2-amine]",2.85
5,"CCc1nc(C)c(-c2nc(Nc3cc(OC)c(OC)c(OC)c3)ncc2Cl)s1 [Example 907, 5-chloro-4-(2-ethyl-4-methyl-1,3-thiazol-5-yl)-N-(3,4,5-trimethoxyphenyl)pyrimidine-2-amine]",3.2
6,"COc1cc(Nc2ncc(Br)c(-c3sc(C(C)C)nc3C)n2)cc(OC)c1OC [Example 908, 5-bromo-4-(2-isopropyl-4-methyl-1,3-thiazol-5-yl)-N-(3,4,5-trimethoxyphenyl)pyrimidine-2-amine]",3.65
7,"Cc1nc(C)c(-c2nc(Nc3ccccc3)ncc2Br)s1 [Example 909, 5-bromo-4-(2,4-dimethyl-1,3-thiazol-5-yl)-N-phenylpyrimidine-2-amine]",3.3
8,"COCCOc1nc(C)c(-c2ccnc(Nc3cc(OC)c(OC)c(OC)c3)n2)s1 [Example 910, 4-[2-(2-methoxyethoxy)-4-methyl-1,3-thiazol-5-yl]-N-(3,4,5-trimethoxyphenyl)pyrimidine-2-amine]",2.53
9,"COCCOc1nc(C)c(-c2ccnc(Nc3cccc([N+](=O)[O-])c3)n2)s1 [Example 911, 4-[2-(2-methoxyethoxy)-4-methyl-1,3-thiazol-5-yl]-N-(3-nitrophenyl)pyrimidine-2-amine]",3.08
10,"COCCOc1nc(C)c(-c2ccnc(Nc3cccc(C(C)=O)c3)n2)s1 [Example 912, 1-[3-({4-[2-(2-methoxyethoxy)-4-methyl-1,3-thiazol-5-yl]pyrimidin-2-yl}amino)phenyl]ethanone]",2.64
11,"COCCOc1nc(C)c(-c2ccnc(Nc3cccc(Cl)c3)n2)s1 [Example 913, N-(3-chlorophenyl)-4-[2-(2-methoxyethoxy)-4-methyl-1,3-thiazol-5-yl]pyrimidine-2-amine]",3.57
12,"COCCOc1nc(C)c(-c2ccnc(Nc3cccc(OC)c3)n2)s1 [Example 914, 4-[2-(2-methoxyethoxy)-4-methyl-1,3-thiazol-5-yl]-N-(3-methoxyphenyl)pyrimidine-2-amine]",2.92
13,"COCCOc1nc(C)c(-c2ccnc(Nc3ccc(OC)nc3)n2)s1 [Example 915, 4-[2-(2-methoxyethoxy)-4-methyl-1,3-thiazol-5-yl]-N-(6-methoxypyridin-3-yl)pyrimidine-2-amine]",2.34
14,"COCCOc1nc(C)c(-c2ccnc(Nc3ccc(C(C)=O)cc3)n2)s1 [Example 916, 1-[4-({4-[2-(2-methoxyethoxy)-4-methyl-1,3-thiazol-5-yl]pyrimidin-2-yl}amino)phenyl]ethanone]",2.58
15,"COCCOc1nc(C)c(-c2ccnc(Nc3ccc(N4CCCC4=O)cc3)n2)s1 [Example 917, 1-[4-({4-[2-(2-methoxyethoxy)-4-methyl-1,3-thiazol-5-yl]pyrimidin-2-yl}amino)phenyl]pyrrolidin-2-one]",2.23
16,"Cc1nc(C(C)C)sc1-c1ccnc(Nc2cccnc2)n1 [Example 919, 4-(2-isopropyl-4-methyl-1,3-thiazol-5-yl)-N-pyridin-3-ylpyrimidine-2-amine]",1.51
